In article PMC4737155 (Nucleic Acids Research, 2015):

Assays:
Assay in all cases: biochemical
SaTrm10 [1] = molecular target: SaTrm10 (Sulfolobus acidocaldarius, UniProt Q4J894, D184N)
SaTrm10 [2] = molecular target: SaTrm10 (Sulfolobus acidocaldarius, UniProt Q4J894, D220N)
SaTrm10 [3] = molecular target: T1, SaTrm10 (Sulfolobus acidocaldarius, UniProt Q4J894)
T1 sequence (Q4J894 1-292): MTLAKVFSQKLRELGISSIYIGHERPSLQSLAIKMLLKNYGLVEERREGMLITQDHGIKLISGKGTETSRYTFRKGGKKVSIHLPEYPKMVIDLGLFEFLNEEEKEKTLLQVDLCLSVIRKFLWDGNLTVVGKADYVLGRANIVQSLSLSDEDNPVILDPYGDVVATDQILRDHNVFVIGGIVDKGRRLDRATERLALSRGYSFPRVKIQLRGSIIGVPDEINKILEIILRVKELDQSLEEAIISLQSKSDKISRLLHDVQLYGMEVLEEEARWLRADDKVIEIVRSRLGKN

Chain of SaTrm10 (Sulfolobus acidocaldarius, UniProt Q4J894, D220N) (Q4J894 whole entry D220N): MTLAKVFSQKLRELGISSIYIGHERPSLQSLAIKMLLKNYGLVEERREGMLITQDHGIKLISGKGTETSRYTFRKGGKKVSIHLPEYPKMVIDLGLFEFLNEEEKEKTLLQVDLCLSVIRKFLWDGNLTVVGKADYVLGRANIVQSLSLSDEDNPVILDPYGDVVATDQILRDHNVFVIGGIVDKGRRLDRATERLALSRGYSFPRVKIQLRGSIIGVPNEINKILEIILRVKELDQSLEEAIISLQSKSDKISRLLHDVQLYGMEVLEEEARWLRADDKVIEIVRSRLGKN
Chain of SaTrm10 (Sulfolobus acidocaldarius, UniProt Q4J894, D184N) (Q4J894 whole entry D184N): as the sequence (Q4J894 whole entry D220N) above, with D184N, N220D counted along it

What does the source list for C[S+](CC[C@H](N)C(=O)O)C[C@H]1O[C@@H](n2cnc3c(N)ncnc32)[C@H](O)[C@@H]1O (stereo partly drawn) [S-adenosyl methionine]?
Kd (SaTrm10 [1]): 28 ± 5 µM; Kd (SaTrm10 [2]): 47 ± 8 µM; Kd (SaTrm10 [3]): 33 ± 4 µM
